Data from paper PMC9289672, “Optimization of Antibacterial Activity in Tibetan Swine α-Helix Peptide TP by Site-Directed Mutagenesis” (Frontiers in Microbiology, 2022).
Where no end group is shown, it is not given here.

Legend:
all strains in Table 2 = test: Geometric mean of MIC and therapeutic index; assay type: cell-based; settings: MHC/GM; 128 μm used when 50% hemolysis not observed at 128 μm
Method: (§1) The bacteria were cultured overnight in the MHB medium and transferred to the new MHB the next day until the bacteria reached the exponential growth stage. The bacteria were diluted with MHB to 2 × 10^5 CFU/ml. About 50 μl of polypeptide and equal volume of bacterial suspension was added to a 96-well plate to give the final concentration of polypeptide between 1 and 128 μm. The last two columns are negative (MHB only) and positive (bacterial and MHB) controls and incubated at 37°C for 18–24 h. Optical density was measured at an absorbance wavelength of 492 nm using a microplate reader (Tecan GENios F129004, Tecan, Austria). At least three independent measurements were taken. Each trial was conducted two times in parallel. A total of three independent assays were carried out.
Trp is a hydrophobic amino acid with aromatic side chains. It is a special amino acid in peptide design. Previous studies have pointed out that introducing amino acids will also bring toxicity while improving activity. Therefore, at the beginning of the design, we predicted that selecting Trp as hydrophobic amino acid to substitute H-H position would bring certain toxicity to the peptide. Thus, as expected, the introduction of Trp increases the activity and toxicity of these peptides. […] Meanwhile, the virulence of TP(i+4) 1&2&5&6 and TP(i+4) 1&2&6&7 was lower than that of TP(i+4) 1&2&5&7. We infer that the location of hydrophobic centers can effectively reduce peptide toxicity by Trp substitution. For further evaluating the cell selectivity of the peptides, we also calculated the SI which defined as the ratio of MHC to the geometric mean (GM) (Dufourc, [2008]).

E. coli 25922 [1] = assay type: cell-based, Escherichia coli; settings: 25922, 4 h
Method: (§2) The salt and serum stability of polypeptides were determined by improved MIC method (Lv et al., [2014]). Peptides were incubated with BSA containing different final concentrations of salt ions (150 mM NaCl, 4.5 mM KCl, 6 μm NH4Cl, 8 μm ZnCl2, 1 mM MgCl2, 2 mM CaCl2, and 4 μm FeCl3) (Wang et al., [2018]). To determine the stability of the peptide in serum, peptide was incubated with different proportions of serum (50%, 100%) at 37°C for 4 h. The following steps are the same as those for antimicrobial activity. Each trial was conducted two times in parallel. A total of three independent assays were carried out.

[2] = test system: Salmonella typhimurium ATCC 14028
Description: (§3) The bacteria strains Escherichia coli ATCC 25922, Escherichia coli UB1005, Salmonella typhimurium ATCC 14028, Salmonella typhimurium C7731, Pseudomonas aeruginosa ATCC 27853, Pseudomonas aeruginosa PAO1, Staphylococcus aureus ATCC 29213, Staphylococcus aureus ATCC 25923, Methicillin-resistant Staphylococcus aureus (MRSA) 43300, Enterococcus faecalis ATCC 29212, and Staphylococcus epidermidis ATCC 12228 were obtained from the College of Veterinary Medicine, Northeast Agricultural University (Harbin, China).
as §1

Escherichia coli UB1005 = settings: MHB, bacteria diluted to 2 × 10^5 CFU/ml, peptide 1-128 μm, 37°C 18-24 h, OD 492 nm; three independent assays, two in parallel
Description: as §3, §1

[3] = test system: Staphylococcus aureus ATCC 29213
Description: as §3, §1

[4] = test system: Salmonella typhimurium C7731; settings: MHB, bacteria diluted to 2 × 10^5 CFU/ml, peptide 1-128 μm, 37°C 18-24 h, OD 492 nm; three independent assays, two in parallel
Description: as §3, §1

[5] = test system: Staphylococcus aureus ATCC 25923
Description: as §3, §1

[6] = test system: Methicillin-resistant Staphylococcus aureus (MRSA) 43300; settings: Methicillin-resistant 43300
Description: as §3, §1

[7] = test system: Pseudomonas aeruginosa PAO1
Description: as §3, §1

[8] = test system: Enterococcus faecalis ATCC 29212
Description: as §3, §1

[9] = test system: Pseudomonas aeruginosa ATCC 27853
Description: as §3, §1

[10] = test system: Escherichia coli ATCC 25922
Description: as §3, §1

[11] = test system: Staphylococcus epidermidis ATCC 12228
Description: as §3, §1

[12] = test system: IPEC-J2 and HEK 293T cells
Method: (§5) The cytotoxicity of each peptide was assessed with IPEC-J12 and HEK 293T cells. […] Each trial was conducted two times in parallel. A total of three independent assays were carried out.

[13] = test system: hRBCs (human red blood cells); test: Hemolytic activity; settings: three independent assays, two in parallel
Method: as §5

S. aureus 29213 = assay type: cell-based, Staphylococcus aureus; settings: 29213, 4 h
Method: as §2

Gram-positive bacteria = test: Geometric mean of MIC and therapeutic index; assay type: cell-based; settings: MHC/GM; 128 μm used when 50% hemolysis not observed at 128 μm
Method: as §1
(§4) Trp is a hydrophobic amino acid with aromatic side chains. It is a special amino acid in peptide design. Previous studies have pointed out that introducing amino acids will also bring toxicity while improving activity. […] For further evaluating the cell selectivity of the peptides, we also calculated the SI which defined as the ratio of MHC to the geometric mean (GM) (Dufourc, [2008]).

Gram-negative bacteria = test: Geometric mean of MIC and therapeutic index; assay type: cell-based; settings: MHC/GM; 128 μm used when 50% hemolysis not observed at 128 μm
Method: as §1, §4

E. coli 25922 [14] = test: In vivo efficacy assay (peritonitis-sepsis model); settings: C57BL/6 mice, i.p. E. coli 25922; peptide 5 mg/kg i.p. at 0 and 1 h, colistin 1 mg/kg; 12 h after infection; vs infected group, p < 0.05
Method: A total of 32 female C57BL/6 mice (weighing about 20 g) aged from 6 to 8 weeks were selected. The mice in each group were divided into 4 groups by blind method (n = 8): […] (d) treatment group (E. coli 25922 + Colistin). Mice in control group were intraperitoneally injected with 100 μl normal saline, and mice in other groups were intraperitoneally injected with 100 μl (~1 × 10^8 CFU/ml) diluted bacterial solution. The peptide treatment group was intraperitoneally injected with TP(i+4) 1&2&5 (5 mg/kg) at 0 and 1 h after infection, and the control group and antibiotic treatment group were injected with normal saline and colistin (1 mg/kg), respectively. The mice were then euthanized 12 h after infection. After weighing liver, lung, spleen, and kidney, the bacterial load of each organ was determined, and the histopathological changes in the organ sections were analyzed by H&E staining. Serum levels of inflammatory factors IL-6, IL-1β, and TNF-α were detected by ELISA kits (Shanghai Jinma).

E. coli 25922 [15] = test: Drug resistance assessment (continuous culture at sub-MIC); assay type: cell-based, Escherichia coli; settings: E. coli 25922, serial passage at sub-MIC
Method: Continuous culture method was used to evaluate the drug resistance of peptides. Colistin was used as model antibiotic to test the resistance of E. coli 25922. First, minimum inhibitory concentration (MIC) was determined for peptide and Colistin Next, the bacteria with each sub-MIC concentration were diluted to 2 × 10^5 CFU/ml with MHB for the MIC determination of the next passage. The process was repeated 30 times.

Substance: ASVVKKLWKGVWKLLK-NH2 [TP(i+4) 1&2&5]
- Therapeutic index (TI) / selectivity index (SI), All (all strains in Table 2): 64.00
- MIC after incubation with 100% serum (E. coli 25922 [1]): 2 µM
- MIC in the presence of Ca2+ (E. coli 25922 [1]): 4 µM
- MIC in the presence of Fe3+ (E. coli 25922 [1]): 1 µM
- MIC in the presence of K+ (E. coli 25922 [1]): 2 µM
- MIC in the presence of Mg2+ (E. coli 25922 [1]): 2 µM
- MIC in the presence of NH4+ (E. coli 25922 [1]): 2 µM
- MIC in the presence of Na+ (E. coli 25922 [1]): 4 µM
- MIC in the presence of Zn2+ (E. coli 25922 [1]): 1 µM
- MIC, Control (E. coli 25922 [1]): 1 µM
- MIC, S. typhimurium 14028 [2]: 2 µM
- MIC, E. coli UB1005 (Escherichia coli UB1005): 2 µM
- MIC, S. aureus 29213 [3]: 2 µM
- MIC, S. typhimurium 7731 [4]: 4 µM
- MIC, S. aureus 25923 [5]: 2 µM
- MIC, S. aureus 43300 [6]: 2 µM
- MIC, P. aeruginosa PAO1 [7]: 2 µM
- MIC, E. faecalis 29212 [8]: 2 µM
- MIC, P. aeruginosa 27853 [9]: 2 µM
- MIC, E. coli 25922 [10]: 1 µM
- MIC, S. epidermidis 12228 [11]: 2 µM
- cell viability [12]: ~ 50%
- MHC (concentration of peptide that causes hemolysis of 50% of human red blood cells) [13]: >128 µM
- MIC after incubation with 100% serum (S. aureus 29213): 8 µM
- MIC in the presence of Ca2+ (S. aureus 29213): 2 µM
- MIC in the presence of Fe3+ (S. aureus 29213): 2 µM
- MIC in the presence of K+ (S. aureus 29213): 1 µM
- MIC in the presence of Mg2+ (S. aureus 29213): 2 µM
- MIC in the presence of NH4+ (S. aureus 29213): 2 µM
- MIC in the presence of Na+ (S. aureus 29213): 2 µM
- MIC in the presence of Zn2+ (S. aureus 29213): 1 µM
- MIC, Control (S. aureus 29213): 2 µM
- Therapeutic index (TI), Gram-positive bacteria (Gram-positive bacteria): 64.00
- Therapeutic index (TI), Gram-negative bacteria (Gram-negative bacteria): 64.00

Substance: Colistin
- bacterial load in organs (liver, kidney, spleen, lungs) (E. coli 25922 [14]): significantly reduced
- generation at which resistance appeared (E. coli 25922 [15]): sixth generation
- increase in MIC values after 30 generations (E. coli 25922 [15]; 30 passages): 256 fold
